Non-standard residues stand in square brackets, D forms with d. Residues, ends and D or L forms follow the SMILES beside them. pGlu = O=C1CC[C@@H](C(=O)O)N1

For data set [1], the system named is spontaneous ovulation. Kind of data set: Inhibition of spontaneous ovulation in female rats. It counts as in vivo, rat. The note with it: subcutaneous injections in oil on afternoon of proestrus, adult female rats; for Number of Ovulating Rats: ovulating/total. As to the method: (§1) The rats are sacrificed the next morning (estrus), and the number of animals ovulating and the number of ova identified under a disecting microscope are recorded. The absence of, or a significant decrease in, the number of ova is the criterion for an anti-ovulary effect.

For data set [2], the system named is luteinizing hormone (LH) release. Conditions: in vivo, rat; cited from earlier work.
Data set [3] in a line: CNS depression noted during the anti-ovulatory test. It counts as in vivo, rat. Conditions: at the anti-ovulatory dose (6 mg., subcutaneous in oil), female rats. As to the method: as §1
Data set [4] has as its system Follicle stimulating hormone (FSH) release. The note with it: in vivo, rat; cited from earlier work.

As to `CCNC(=O)[C@@H]1CCCN1C(=O)[C@H](Cc1c[nH]c2ccccc12)NC(=O)[C@H](CCCNC(=N)N)NC(=O)[C@H](Cc1ccc(O)cc1)NC(=O)[C@@H]1CCC(=O)N1` [Example 9, L-(5-Oxoprolyl)-L-tyrosyl-L-arginyl-L-tryptophyl-N-ethyl-2-prolin amide] (HELM PEPTIDE1{[Glp].Y.R.W.P.[CCN[*:1]]}$$$$V2.0), in data set [1] (Dose 6 mg.), the “% Inhibition of Ovulation” value was 50% and the “Number of Ovulating Rats” value is given as 2/4. As for `CC(C)C[C@H](NC(=O)[C@@H](C)NC(=O)CNC(=O)[C@H](Cc1c[nH]c2ccccc12)NC(=O)[C@H](CCCNC(=N)N)NC(=O)[C@H](Cc1ccc(O)cc1)NC(=O)[C@@H]1CCC(=O)N1)C(=O)N[C@@H](CCCNC(=N)N)C(=O)N1CCC[C@H]1C(N)=O` [Example 7, L-(5-Oxoprolyl)-L-tyrosyl-L-arginyl-L-tryptophylglycyl-D-alanyl-L-leucyl-L-arginyl-L-prolyl amide] (HELM PEPTIDE1{[Glp].Y.R.W.G.[dA].L.R.P.[am]}$$$$V2.0), in data set [1] (Dose 0.5 mg.), the “% Inhibition of Ovulation” value was 50% and the “Number of Ovulating Rats” value is given as 3/6.

With [pGlu]YRWGHL-NH2, in data set [2], the “release of luteinizing hormone (LH)” value was “release LH”. Turning to `CCNC(=O)[C@@H]1CCCN1C(=O)[C@H](CCCNC(=N)N)NC(=O)[C@H](CC(C)C)NC(=O)[C@@H](C)NC(=O)CNC(=O)[C@H](Cc1c[nH]c2ccccc12)NC(=O)[C@H](CCCNC(=N)N)NC(=O)[C@H](Cc1ccc(O)cc1)NC(=O)[C@@H]1CCC(=O)N1` [Example 5, L-(5-Oxoprolyl)-L-tyrosyl-L-arginyl-L-tryptophylglycyl-D-alanyl-L-leucyl-L-arginyl-N-ethyl-L-prolinamide] (HELM PEPTIDE1{[Glp].Y.R.W.G.[dA].L.R.P.[CCN[*:1]]}$$$$V2.0), in data set [1] (Dose 6 mg.), the “% Inhibition of Ovulation” value is 60% and the “Number of Ovulating Rats” value is given as 2/5.

For `CCNC(=O)[C@@H]1CCCN1C(=O)[C@H](CCCNC(=N)N)NC(=O)[C@@H](CC(C)C)NC(=O)C(C)(C)NC(=O)CNC(=O)[C@@H](Cc1c[nH]c2ccccc12)NC(=O)[C@H](CCCNC(=N)N)NC(=O)[C@H](Cc1ccc(O)cc1)NC(=O)[C@@H]1CCC(=O)N1` [Example 3, L-(5-Oxoprolyl)-L-tyrosyl-L-arginyl-D-tryptophylglycyl-(2-methylalanyl)-D-leucyl-L-arginyl-N-ethyl-L-prolinamide] (HELM PEPTIDE1{[Glp].Y.R.[dW].G.[Aib].[dL].R.P.[CCN[*:1]]}$$$$V2.0), the CNS depression entry in data set [3] is recorded as “CNS depression is noted at the anti-ovulatory dose”. Regarding [pGlu]YRW-NH2, the “release of luteinizing hormone (LH)” value in data set [2] is “release luteinizing hormone (LH)”. Besides, in data set [4], the “Follicle stimulating hormone (FSH) release” value was “unaffected”.

The values above are taken from patent publication US4124578A, “Antiovulatory polypeptides” (American Home Products Corporation, priority 1978, dated 1978).
